How the values were obtained:
Adenosine receptor A2a = Adenosine receptor A2a (Homo sapiens, UniProt P29274)
[1] = molecular target: T1, Alpha-1A adrenergic receptor (Homo sapiens, UniProt P35348); format: functional, cell-based
T1 sequence (P35348 whole entry): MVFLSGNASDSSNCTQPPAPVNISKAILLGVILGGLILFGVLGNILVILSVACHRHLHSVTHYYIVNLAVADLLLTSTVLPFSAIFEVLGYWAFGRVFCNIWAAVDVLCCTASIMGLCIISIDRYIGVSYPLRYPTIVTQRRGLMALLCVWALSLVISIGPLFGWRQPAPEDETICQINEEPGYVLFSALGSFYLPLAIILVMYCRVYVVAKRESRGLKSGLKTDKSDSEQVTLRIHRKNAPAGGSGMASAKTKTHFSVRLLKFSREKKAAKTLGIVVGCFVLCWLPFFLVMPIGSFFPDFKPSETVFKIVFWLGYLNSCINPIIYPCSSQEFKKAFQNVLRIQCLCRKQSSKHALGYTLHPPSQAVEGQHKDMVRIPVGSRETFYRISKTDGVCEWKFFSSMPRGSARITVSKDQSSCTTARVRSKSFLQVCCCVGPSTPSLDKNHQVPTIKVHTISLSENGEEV

[2] = molecular target: T2, Alpha-2A adrenergic receptor (Homo sapiens, UniProt P08913); format: functional, cell-based
T2 sequence (P08913 whole entry): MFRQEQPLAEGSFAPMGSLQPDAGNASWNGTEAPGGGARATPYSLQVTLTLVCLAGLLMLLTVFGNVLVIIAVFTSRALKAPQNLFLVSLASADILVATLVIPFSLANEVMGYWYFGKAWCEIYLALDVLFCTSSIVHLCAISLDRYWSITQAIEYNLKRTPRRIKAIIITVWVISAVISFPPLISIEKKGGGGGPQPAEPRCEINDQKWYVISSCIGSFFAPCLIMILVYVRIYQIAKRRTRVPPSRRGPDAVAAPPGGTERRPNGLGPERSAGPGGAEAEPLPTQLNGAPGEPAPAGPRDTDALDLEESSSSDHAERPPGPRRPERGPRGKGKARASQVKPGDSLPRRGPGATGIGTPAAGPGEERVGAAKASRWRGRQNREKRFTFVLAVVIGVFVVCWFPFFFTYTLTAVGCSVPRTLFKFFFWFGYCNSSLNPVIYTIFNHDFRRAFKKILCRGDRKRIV

[3] = molecular target: T2, Alpha-2A adrenergic receptor; format: functional, cell-based; remark: listed apart in the source
[4] = molecular target: T3, Alpha-2C adrenergic receptor (Homo sapiens, UniProt P18825); format: functional
T3 sequence (P18825 whole entry): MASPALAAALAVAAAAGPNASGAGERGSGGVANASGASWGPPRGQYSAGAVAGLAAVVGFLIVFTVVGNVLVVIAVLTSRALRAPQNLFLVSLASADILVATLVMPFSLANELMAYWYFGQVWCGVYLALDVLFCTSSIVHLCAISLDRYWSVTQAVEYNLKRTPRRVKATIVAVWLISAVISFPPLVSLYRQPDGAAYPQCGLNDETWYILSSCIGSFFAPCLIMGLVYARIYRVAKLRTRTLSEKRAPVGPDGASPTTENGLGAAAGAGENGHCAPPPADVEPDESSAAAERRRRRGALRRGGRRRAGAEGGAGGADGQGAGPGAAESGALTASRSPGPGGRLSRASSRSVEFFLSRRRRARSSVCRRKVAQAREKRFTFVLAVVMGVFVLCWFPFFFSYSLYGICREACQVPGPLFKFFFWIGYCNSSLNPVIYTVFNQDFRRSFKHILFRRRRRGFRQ

[5] = molecular target: Beta-1 adrenergic receptor (Homo sapiens, UniProt P08588); format: functional
B2 bradykinin receptor = molecular target: T4, B2 bradykinin receptor (Homo sapiens, UniProt P30411)
T4 sequence (P30411 whole entry): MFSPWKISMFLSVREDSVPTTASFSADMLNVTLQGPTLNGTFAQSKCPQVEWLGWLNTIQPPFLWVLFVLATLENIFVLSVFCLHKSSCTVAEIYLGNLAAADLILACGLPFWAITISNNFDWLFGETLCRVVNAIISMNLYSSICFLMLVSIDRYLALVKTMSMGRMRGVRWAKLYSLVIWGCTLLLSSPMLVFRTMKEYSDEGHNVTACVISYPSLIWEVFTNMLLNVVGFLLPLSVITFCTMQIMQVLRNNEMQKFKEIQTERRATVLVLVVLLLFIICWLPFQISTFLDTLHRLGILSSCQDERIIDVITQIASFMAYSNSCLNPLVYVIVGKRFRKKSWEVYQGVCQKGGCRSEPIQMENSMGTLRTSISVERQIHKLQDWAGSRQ

[6] = molecular target: Muscarinic acetylcholine receptor M3 (Homo sapiens, UniProt P20309)
[7] = molecular target: Neuronal acetylcholine receptor subunit alpha-4 (Homo sapiens, UniProt P43681)
D(1A) dopamine receptor = D(1A) dopamine receptor (Homo sapiens, UniProt P21728); format: functional, cell-based
[8] = molecular target: Gamma-aminobutyric acid receptor subunit alpha-1 (Rattus norvegicus, UniProt P62813); format: functional
[9] = molecular target: T5, 5-hydroxytryptamine receptor 2A (Homo sapiens, UniProt P28223); format: functional, cell-based
[10] = molecular target: T5, 5-hydroxytryptamine receptor 2A; format: functional, cell-based; remark: listed apart in the source
[11] = molecular target: 5-hydroxytryptamine receptor 2B (Homo sapiens, UniProt P41595); format: functional, cell-based
Mu-type opioid receptor = Mu-type opioid receptor (Homo sapiens, UniProt P35372)
Endothelin-1 receptor = molecular target: T6, Endothelin-1 receptor (Homo sapiens, UniProt P25101)
T6 sequence (P25101 whole entry): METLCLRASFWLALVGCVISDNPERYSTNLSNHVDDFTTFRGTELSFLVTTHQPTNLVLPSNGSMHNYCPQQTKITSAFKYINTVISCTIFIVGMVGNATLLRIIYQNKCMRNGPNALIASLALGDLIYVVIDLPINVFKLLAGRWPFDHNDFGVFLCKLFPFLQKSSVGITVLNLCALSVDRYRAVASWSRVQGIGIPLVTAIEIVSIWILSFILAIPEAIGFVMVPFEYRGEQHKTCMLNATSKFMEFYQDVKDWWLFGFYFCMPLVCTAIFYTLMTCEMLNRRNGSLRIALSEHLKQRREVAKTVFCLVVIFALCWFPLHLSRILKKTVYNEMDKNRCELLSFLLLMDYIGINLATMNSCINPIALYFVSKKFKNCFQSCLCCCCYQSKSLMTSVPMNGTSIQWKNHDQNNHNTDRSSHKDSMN
Note: assay procedure not described here.

Muscarinic acetylcholine receptor M3, sequence (P20309 whole entry): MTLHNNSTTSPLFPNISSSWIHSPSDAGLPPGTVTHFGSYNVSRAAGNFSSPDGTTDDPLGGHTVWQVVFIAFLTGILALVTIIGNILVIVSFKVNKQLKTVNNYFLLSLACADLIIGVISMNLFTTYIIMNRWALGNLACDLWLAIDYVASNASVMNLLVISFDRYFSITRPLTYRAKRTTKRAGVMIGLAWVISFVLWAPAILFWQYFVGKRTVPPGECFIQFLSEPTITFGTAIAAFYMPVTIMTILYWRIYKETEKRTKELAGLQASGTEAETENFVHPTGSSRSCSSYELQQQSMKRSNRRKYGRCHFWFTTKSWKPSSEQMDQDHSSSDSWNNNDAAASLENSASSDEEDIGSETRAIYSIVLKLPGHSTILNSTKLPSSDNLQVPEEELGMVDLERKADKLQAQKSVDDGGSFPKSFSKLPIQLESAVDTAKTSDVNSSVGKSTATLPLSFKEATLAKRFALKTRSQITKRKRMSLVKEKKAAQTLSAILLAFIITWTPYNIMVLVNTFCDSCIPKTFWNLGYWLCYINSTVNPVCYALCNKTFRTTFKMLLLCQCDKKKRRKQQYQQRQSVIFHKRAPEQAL
Gamma-aminobutyric acid receptor subunit alpha-1, sequence (P62813 whole entry): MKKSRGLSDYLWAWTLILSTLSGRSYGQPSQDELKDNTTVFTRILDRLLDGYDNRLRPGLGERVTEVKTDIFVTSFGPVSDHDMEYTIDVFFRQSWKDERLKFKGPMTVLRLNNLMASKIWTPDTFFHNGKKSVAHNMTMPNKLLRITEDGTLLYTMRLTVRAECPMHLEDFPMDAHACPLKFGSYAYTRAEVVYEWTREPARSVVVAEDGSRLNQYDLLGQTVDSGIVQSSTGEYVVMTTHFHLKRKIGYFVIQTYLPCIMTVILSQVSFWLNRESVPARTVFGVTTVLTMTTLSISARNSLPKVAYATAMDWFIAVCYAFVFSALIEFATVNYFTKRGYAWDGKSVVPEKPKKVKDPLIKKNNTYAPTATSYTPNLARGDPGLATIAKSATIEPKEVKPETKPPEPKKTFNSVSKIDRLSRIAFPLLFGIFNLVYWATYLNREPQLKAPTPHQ
Beta-1 adrenergic receptor, sequence (P08588 whole entry): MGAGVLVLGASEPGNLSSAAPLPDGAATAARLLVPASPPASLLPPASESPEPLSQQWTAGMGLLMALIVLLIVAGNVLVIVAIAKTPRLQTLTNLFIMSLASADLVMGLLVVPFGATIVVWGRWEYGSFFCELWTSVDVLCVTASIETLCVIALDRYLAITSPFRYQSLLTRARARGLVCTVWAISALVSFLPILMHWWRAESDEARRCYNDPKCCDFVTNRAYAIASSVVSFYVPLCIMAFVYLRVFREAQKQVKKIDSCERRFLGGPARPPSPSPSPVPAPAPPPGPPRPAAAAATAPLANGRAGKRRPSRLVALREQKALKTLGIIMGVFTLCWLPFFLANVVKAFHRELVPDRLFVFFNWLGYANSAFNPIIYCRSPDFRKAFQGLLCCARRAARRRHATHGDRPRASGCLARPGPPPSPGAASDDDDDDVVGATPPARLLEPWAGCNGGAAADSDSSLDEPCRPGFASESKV
Neuronal acetylcholine receptor subunit alpha-4, sequence (P43681 whole entry): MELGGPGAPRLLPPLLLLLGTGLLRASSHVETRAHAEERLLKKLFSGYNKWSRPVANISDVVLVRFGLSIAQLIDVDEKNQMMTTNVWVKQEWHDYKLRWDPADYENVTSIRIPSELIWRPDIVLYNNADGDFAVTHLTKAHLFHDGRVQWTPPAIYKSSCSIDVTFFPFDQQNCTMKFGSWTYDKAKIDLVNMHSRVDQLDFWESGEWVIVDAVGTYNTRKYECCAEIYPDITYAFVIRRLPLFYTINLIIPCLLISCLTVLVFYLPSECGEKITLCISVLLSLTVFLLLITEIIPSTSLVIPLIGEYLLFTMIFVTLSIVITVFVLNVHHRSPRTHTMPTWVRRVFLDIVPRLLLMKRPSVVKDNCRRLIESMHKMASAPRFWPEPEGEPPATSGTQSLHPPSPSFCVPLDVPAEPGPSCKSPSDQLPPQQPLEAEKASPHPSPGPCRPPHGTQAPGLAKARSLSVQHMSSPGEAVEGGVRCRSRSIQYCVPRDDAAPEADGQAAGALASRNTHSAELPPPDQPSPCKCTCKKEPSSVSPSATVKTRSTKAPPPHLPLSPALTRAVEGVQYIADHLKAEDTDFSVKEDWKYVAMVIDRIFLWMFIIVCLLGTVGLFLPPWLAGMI
D(1A) dopamine receptor, sequence (P21728 whole entry): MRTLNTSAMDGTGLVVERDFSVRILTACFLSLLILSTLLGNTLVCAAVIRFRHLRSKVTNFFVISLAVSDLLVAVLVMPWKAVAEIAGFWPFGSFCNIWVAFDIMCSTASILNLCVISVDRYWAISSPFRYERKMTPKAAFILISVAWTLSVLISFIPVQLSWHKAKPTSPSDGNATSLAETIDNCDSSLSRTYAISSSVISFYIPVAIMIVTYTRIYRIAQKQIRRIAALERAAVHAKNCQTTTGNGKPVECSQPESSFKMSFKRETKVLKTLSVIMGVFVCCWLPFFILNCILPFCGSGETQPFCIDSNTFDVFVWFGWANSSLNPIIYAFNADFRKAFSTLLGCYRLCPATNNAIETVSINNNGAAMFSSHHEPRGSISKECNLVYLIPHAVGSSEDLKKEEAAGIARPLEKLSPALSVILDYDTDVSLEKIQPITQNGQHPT
T5 sequence (P28223 whole entry): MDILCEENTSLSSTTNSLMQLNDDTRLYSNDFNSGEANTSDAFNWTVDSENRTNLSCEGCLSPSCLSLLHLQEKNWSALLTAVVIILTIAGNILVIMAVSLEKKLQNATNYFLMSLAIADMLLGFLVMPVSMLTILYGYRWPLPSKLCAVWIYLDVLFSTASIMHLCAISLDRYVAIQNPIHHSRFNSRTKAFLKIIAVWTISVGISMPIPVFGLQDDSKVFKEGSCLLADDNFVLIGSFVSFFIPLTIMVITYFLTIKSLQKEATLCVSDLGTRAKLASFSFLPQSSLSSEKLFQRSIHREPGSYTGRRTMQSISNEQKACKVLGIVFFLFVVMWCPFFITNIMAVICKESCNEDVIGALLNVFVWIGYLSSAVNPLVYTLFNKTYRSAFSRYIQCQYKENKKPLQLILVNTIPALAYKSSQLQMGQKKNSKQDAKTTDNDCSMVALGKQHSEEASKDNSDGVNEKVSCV
Adenosine receptor A2a, sequence (P29274 whole entry): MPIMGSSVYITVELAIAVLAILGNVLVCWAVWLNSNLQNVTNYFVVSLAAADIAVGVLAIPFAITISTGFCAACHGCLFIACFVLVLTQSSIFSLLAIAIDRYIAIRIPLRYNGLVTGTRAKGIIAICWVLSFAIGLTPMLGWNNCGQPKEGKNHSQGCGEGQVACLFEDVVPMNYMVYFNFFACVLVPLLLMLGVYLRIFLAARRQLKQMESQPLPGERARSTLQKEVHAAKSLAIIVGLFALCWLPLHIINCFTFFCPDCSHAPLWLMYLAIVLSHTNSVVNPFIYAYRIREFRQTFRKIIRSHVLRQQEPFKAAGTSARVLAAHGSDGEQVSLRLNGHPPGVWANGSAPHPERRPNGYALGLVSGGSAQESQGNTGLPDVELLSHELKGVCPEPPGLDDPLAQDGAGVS
Mu-type opioid receptor, sequence (P35372 whole entry): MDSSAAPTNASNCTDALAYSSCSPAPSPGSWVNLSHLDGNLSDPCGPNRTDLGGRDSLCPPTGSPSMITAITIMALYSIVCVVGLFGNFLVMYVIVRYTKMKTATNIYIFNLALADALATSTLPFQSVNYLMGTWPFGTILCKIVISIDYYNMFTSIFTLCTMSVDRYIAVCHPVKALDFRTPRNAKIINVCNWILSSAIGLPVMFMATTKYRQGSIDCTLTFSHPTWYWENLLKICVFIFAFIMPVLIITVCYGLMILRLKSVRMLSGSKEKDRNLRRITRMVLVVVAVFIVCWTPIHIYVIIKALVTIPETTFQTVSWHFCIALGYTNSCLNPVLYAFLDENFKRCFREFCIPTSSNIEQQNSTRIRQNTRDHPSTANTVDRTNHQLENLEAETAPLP
5-hydroxytryptamine receptor 2B, sequence (P41595 whole entry): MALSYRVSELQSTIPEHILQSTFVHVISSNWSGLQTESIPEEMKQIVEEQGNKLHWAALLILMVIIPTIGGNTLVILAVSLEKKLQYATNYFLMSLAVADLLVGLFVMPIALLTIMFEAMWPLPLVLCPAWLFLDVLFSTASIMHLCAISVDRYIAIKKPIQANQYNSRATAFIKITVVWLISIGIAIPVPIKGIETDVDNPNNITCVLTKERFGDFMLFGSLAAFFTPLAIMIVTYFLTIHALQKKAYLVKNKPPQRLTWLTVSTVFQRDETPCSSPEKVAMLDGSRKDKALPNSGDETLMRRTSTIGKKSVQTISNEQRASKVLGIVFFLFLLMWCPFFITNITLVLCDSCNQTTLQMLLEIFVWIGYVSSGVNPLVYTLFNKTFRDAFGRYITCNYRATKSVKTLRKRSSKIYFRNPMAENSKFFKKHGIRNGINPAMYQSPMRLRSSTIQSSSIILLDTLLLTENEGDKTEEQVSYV

SMILES | AC50 (Adenosine receptor A2a) | AC50 [1] | AC50 [2] | AC50 [3] | AC50 [4] | AC50 [5] | AC50 (B2 bradykinin receptor) | AC50 [6] | AC50 [7] | AC50 (D(1A) dopamine receptor) | AC50 [8] | AC50 [9] | AC50 [10] | AC50 [11] | AC50 (Mu-type opioid receptor) | AC50 (Endothelin-1 receptor)
CC(=O)c1ccc(S(=O)(=O)NC(=O)NC2CCCCC2)cc1 [ACETOHEXAMIDE] | > 10 µM | > 30 µM | > 30 µM | > 30 µM | > 10 µM | > 10 µM | > 10 µM | > 30 µM | > 10 µM | > 10 µM | > 10 µM | > 30 µM | > 30 µM | > 30 µM | > 30 µM | –
COc1cc(C)c(/C=C/C(C)=C/C=C/C(C)=C/C(=O)O)c(C)c1C [ACITRETIN] | > 10 µM | > 30 µM | > 10 µM | > 10 µM | > 10 µM | > 10 µM | > 10 µM | > 30 µM | > 10 µM | > 10 µM | > 10 µM | > 10 µM | > 10 µM | > 10 µM | > 30 µM | –
NS(=O)(=O)c1cc2c(cc1Cl)N=C(CSCc1ccccc1)NS2(=O)=O [BENZTHIAZIDE] | > 10 µM | – | > 10 µM | 1.7 µM | 1.5 µM | > 10 µM | > 10 µM | > 30 µM | > 10 µM | > 10 µM | > 10 µM | > 10 µM | > 10 µM | > 10 µM | > 30 µM | –
CC(C)[C@@H](C)/C=C/[C@@H](C)[C@H]1CC[C@H]2/C(=C/C=C3\C[C@@H](O)CC[C@@H]3C)CCC[C@]12C [DIHYDROTACHYSTEROL] | > 10 µM | – | > 10 µM | > 10 µM | > 10 µM | > 10 µM | > 10 µM | > 30 µM | > 10 µM | > 10 µM | > 10 µM | > 10 µM | > 10 µM | > 10 µM | > 30 µM | –
COc1ccc(CN2CCN(C(c3ccc(F)cc3)c3ccc(F)cc3)CC2)c(OC)c1OC [LOMERIZINE] | > 30 µM | > 30 µM | > 30 µM | > 30 µM | 4.2 µM | > 30 µM | > 30 µM | > 30 µM | > 30 µM | > 30 µM | > 30 µM | > 30 µM | 21 µM | 5.9 µM | 9.7 µM | > 30 µM
CC(=O)[C@H]1CC[C@H]2[C@@H]3C[C@H](C)C4=CC(=O)CC[C@]4(C)[C@H]3[C@@H](O)C[C@]12C [MEDRYSONE] | > 10 µM | > 30 µM | > 10 µM | > 10 µM | > 10 µM | > 10 µM | > 10 µM | > 30 µM | > 10 µM | > 10 µM | > 10 µM | > 10 µM | > 10 µM | > 10 µM | > 30 µM | –
CCCC(C)(COC(N)=O)COC(N)=O [MEPROBAMATE] | > 10 µM | – | > 10 µM | > 10 µM | > 30 µM | > 10 µM | > 10 µM | > 30 µM | > 10 µM | > 10 µM | > 10 µM | > 10 µM | > 10 µM | > 10 µM | > 30 µM | –
O=C(c1cc(Cc2n[nH]c(=O)c3ccccc23)ccc1F)N1CCN(C(=O)C2CC2)CC1 [OLAPARIB] | > 30 µM | – | > 10 µM | > 10 µM | > 10 µM | > 30 µM | > 30 µM | > 30 µM | > 30 µM | > 10 µM | > 10 µM | > 10 µM | > 10 µM | > 10 µM | > 30 µM | –
O=c1[nH]c2ccccc2n1CCCN1CCN(C(c2ccccc2)c2ccccc2)CC1 [OXATOMIDE] | > 30 µM | > 30 µM | > 30 µM | > 30 µM | 0.89 µM | > 30 µM | > 30 µM | 3.5 µM | > 30 µM | > 30 µM | > 30 µM | > 30 µM | 1.2 µM | – | 1.2 µM | > 30 µM
CC1=C(/C=C/C(C)=C/C=C/C(C)=C/CO)C(C)(C)CCC1 [RETINOL] | > 10 µM | – | > 10 µM | > 10 µM | > 10 µM | > 10 µM | > 10 µM | > 30 µM | > 10 µM | > 10 µM | > 10 µM | > 10 µM | > 10 µM | > 10 µM | > 30 µM | –

From ChEMBL document CHEMBL5291721, “A preclinical secondary pharmacology resource illuminates target-adverse drug reaction associations of marketed drugs” (Nat Commun, 2023)
